How the values were obtained:
PBR = target: T1, PBR (Homo sapiens, UniProt P30536); assay: Mitochondrial-specific rhodamine 1,2,3 fluorescence in HeLa cells expressing the PBR; type: cell-based
T1 construct: endogenous in cells; host or cells: HeLa cells
Description: The PBR is situated between the inner and outer mitochondrial membrane. It forms part of the transition pore complex, which participates in regulating mitochondrial flux by opening the mitochondrial pore. There exist molecules which display high affinity for PBR, particularly Ro5-4864 and PK11195.
By monitoring mitochondrial-specific fluorescence of rhodamine 1,2,3, the effects of PBR-specific ligands and those of etazolate could be followed.

cortical neurons = assay: Excitotoxicity protection in primary cortical neurons (MTT test); type: cell-based, rat; conditions: etazolate 1 hour before toxic agents, 6-hour incubation
Procedure: (§1) In this example, cerebellar granular neurons, cortical neurons and ventral spinal cord cells from rats were cultured according to methods known to those skilled in the art.
Wistar rat embryos aged 16 days were removed and the cortex dissected. After trypsination at 37° C. for 25 minutes, the cells were dissociated by trituration, then seeded in minimum essential medium supplemented with 10% horse serum, 10% fetal calf serum and 2 mM glutamine, at a density of 300,000 cells per cm^2. After 4 days of culture, half the medium was replaced with minimum essential medium supplemented with 5% horse serum and 2 mM glutamine. The same day, the antimitotic 5-fluoro-2-deoxyuridine (10 μM) was added. After 7 and 11 days of culture, half the medium was replaced with conditioned medium composed of MEM supplemented with 5% horse serum and 2 mM glutamine; prior to use this medium was passed overnight on a layer of cortical astrocytes. On day 14, the cells were treated with the inhibitor compound etazolate, 1 hour before adding the toxic agents 50 μM kainate or 20 μM N-methyl-D-aspartate in the presence of 10 μM D-serine. […] After a 6-hour incubation, toxicity was measured by the MTT test. The results were normalized to the untreated mean and analyzed statistically with a Wilcoxon test. […]
(§2) Toxicity was measured with the MTT test. […] Absorbance at 550 nm was measured and the percentage viability was calculated.

[1] = tested on: ventral spinal cord cells; assay: Excitotoxicity protection in primary ventral spinal cord cells (MTT test); type: cell-based, rat; conditions: 100 μM NMDA + 10 μM D-serine, 3-hour incubation
Procedure: as §1
Cells were isolated from 14-day-old Wistar rat embryos. On arrival, gestating rats were sacrificed by carbon dioxide intoxication.
The chain of embryos was removed and placed in a dish containing PBS.
The spinal cord of each embryo was dissected and the ventral cord was separated from the dorsal cords. The ventral cords were then trypsinized at 37° C. for 20 minutes. Trypsinization was stopped by addition of Leibovitz 15 medium, 20% horse serum, supplement N2 (1×), 20% glucose (3.2 mg/ml), 7.5% bicarbonate (1.8 mg/ml) and 2 mM L-glutamine. The cells were dissociated by trituration. Clumps of tissue were removed and the dissociated cells were then quantified by trypan blue staining. The cells were seeded at 250,000 cells per cm^2 in neurobasal medium containing 2% horse serum, supplement B27 (1×), and 2 mM glutamine. […] After a 3-hour incubation with NMDA/D-serine as toxic agent and a 1-hour incubation with kainate, toxicity was measured by the MTT test. The results were normalized to the untreated mean and analyzed statistically with a Wilcoxon test with p<0.05.
as §2

[2] = tested on: cerebellar granular cells; assay: Excitotoxicity protection in primary cerebellar granular cells (MTT test); type: cell-based, rat; conditions: etazolate three hours before toxic agents, 6-hour incubation
Procedure: In this example, cerebellar granular neurons, cortical neurons and ventral spinal cord cells from rats were cultured according to methods known to those skilled in the art. Seven-day-old Wistar rats were decapitated and brains were dissected. The meninges were removed and the tissue was then cut into small pieces and trypsinized for 15 minutes at 37° C. Cells were dissociated by trituration, then placed in culture at a density of 300,000 cells per cm^2 in Eagle basic medium supplemented with 10% fetal calf serum and 2 mM glutamine. The next day, 10 μM ARA-C, an antimitotic agent, was added to prevent proliferation of glial cells. The cells were treated on day 9 of culture with the inhibitor compound etazolate, three hours before adding the toxic agents 50 μM kainate or 100 μM N-methyl-D-aspartate in the presence of 10 μM D-serine. Immediately before adding the toxic agents, 8-bromo-cAMP was added. All treatments were done at least in duplicate and in at least two different cultures. After a 6-hour incubation, toxicity was measured by the MTT test. The results were normalized to the untreated mean and analyzed statistically with a Wilcoxon test. The level of significance was p≦0.05. Toxicity was measured with the MTT test. […] Absorbance at 550 nm was measured and the percentage viability was calculated.

[3] = Escalating single oral dose study in healthy male volunteers: plasma assays; type: in vivo; conditions: humans, at high doses
Procedure: (§3) In this study, increasing doses of etazolate (0.5, 1, 2, 5, 10 and 20 mg) were administered orally in the form of 0.5 and 5 mg capsules to different and sequential groups of eight young healthy male volunteers. This was a single-center, double-blind study in which two of the eight subjects received a placebo.
(§4) The following parameters were evaluated: clinical tolerability (adverse effects, clinical signs, changes in blood pressure or heart rate), electrocardiographic tolerability (recording of the ECG) and biological tolerability (hematology and blood biochemistry, urinalysis) for 24 hours after dosing. The product was assayed in plasma at different times before and after administration in each subject (0.25-0.50-1.00-1.50-2.00-3.00-4.00-5.00-6.00-8.00-10.00-12.00 and 24.00 hours). The product was also assayed in urine collected before and after administration (4, 4-8,8-12 and 12-24 hours).

[4] = Escalating single oral dose study in healthy male volunteers: tolerability; type: in vivo, humans; conditions: oral capsules, single doses 0.5-20 mg
Procedure: as §3, §4

[5] = tested on: retinal explants from rd1 mice; assay: Retinal explant cultures from rd1 mice, histopathology of photoreceptors; type: cell-based; conditions: 2 μM etazolate, versus untreated explants
Procedure: This example describes the effects of a PDE4 inhibitor on retina of rd1 mice, which are characterized by a loss of visual cells starting two weeks after birth. For each etazolate concentration (0.02 μM, 0.2 μM, 2 μM and 20 μM), six retinal explants from rd1 mice were cultured for 21 days. The culture was started on postnatal day 7 in medium free of bovine fetal serum but containing etazolate at the indicated concentration. Six retinal explants from the same animals were used as controls for the treated explants. In this case, the explants were grown in culture medium alone or in culture medium containing the vehicle used for etazolate. For both conditions (control and treatment), the culture medium was changed every two days. After 21 days of culture, the explants were fixed, sectioned and labelled for histopathologic studies. Explants from untreated rd1 mice (postnatal day 28) lost most of their photoreceptors in culture, and the presence of an increase in photoreceptors was then detected by counting the remaining photoreceptors.

T1 sequence (P30536 whole entry): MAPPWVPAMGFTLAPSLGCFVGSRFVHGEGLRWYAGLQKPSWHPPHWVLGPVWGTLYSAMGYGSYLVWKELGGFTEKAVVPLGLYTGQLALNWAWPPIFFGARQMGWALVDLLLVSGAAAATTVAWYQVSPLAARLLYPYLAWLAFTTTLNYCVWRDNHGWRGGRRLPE

SMILES | mitochondrial-specific fluorescence of rhodamine 1,2,3 (PBR) | protective effect on NMDA/serine-induced toxicity (cortical neurons; 20 μM N-methyl-D-aspartate + 10 μM D-serine) [%] | protective effect on kainate-induced toxicity (cortical neurons; 50 μM kainate) [%] | protective effect on NMDA/serine-induced toxicity [1] [%] | protective effect on kainate-induced toxicity ([2]; 50 μM kainate) [%] | protective effect on NMDA/serine-induced toxicity ([2]; 100 μM N-methyl-D-aspartate + 10 μM D-serine) [%] | absorption (plasma assays) [3] | side effects [4] | tolerability (clinical, electrocardiographic, biological) ([4]; 24 hours after dosing) | preservation of photoreceptors (photoreceptor layer) ([5]; rd1 retinal explants cultured 21 days from postnatal day 7) | number of picnotic cells ([5]; rd1 retinal explants cultured 21 days)
CCOC(=O)c1cnc2c(cnn2CC)c1NN=C(C)C [etazolate] | induced the same loss of fluorescence as the PBR-specific ligands | 33 | 25 | 36 | 57 | 60 | good | did not cause any side effects | well tolerated | much better preserved | marked reduction
CN1C(=O)CN=C(c2ccc(Cl)cc2)c2cc(Cl)ccc21 [Ro5-4864] | loss of fluorescence |  |  |  |  |  |  |  |  |  | 
CCC(C)N(C)C(=O)c1cc2ccccc2c(-c2ccccc2Cl)n1 (stereo not shown) [PK11195] | loss of fluorescence |  |  |  |  |  |  |  |  |  | 

From US7872015B2, “Methods involving PDE4, compositions, and the screening thereof, for the treatment of degenerative ocular pathologies” (Exonhit Therapeutics SA, priority 2003, dated 2011)
